Laboratory results reported in patent US20260062387A1, “SALT-INDUCIBLE KINASE INHIBITOR COMPOUND AND PHARMACEUTICAL COMPOSITION INCLUDING THE SAME” (MITSUBISHI TANABE PHARMA CORPORATION, priority 2023, published 2026).

Legend:
Assay type in all cases: biochemical
GST-tagged SIK2 = GST-tagged SIK2 (Homo sapiens (Human), UniProt Q9H0K1); experiment: SIK2 inhibition test (ADP-Glo Max Assay); conditions: enzyme 3 nM, AMARA Peptide 200 μM, ATP 1 mM, 2 hours room temperature
Experimental: (§1) The compounds described in Examples above were used in the SIK1, SIK2, and SIK3 inhibition test.
(§2) The inhibitory activity of the compound for SIK1, SIK2, and SIK3 enzymes was assayed by measuring the amount of ADP, an enzyme reaction product, with ADP-Glo™ Max Assay (Promega). Enzymes, specifically, GST-tagged SIK1 (Carna Biosciences, Inc.), GST-tagged SIK2 (Carna Biosciences, Inc.), and GST-tagged SIK3 (SignalChem) were prepared in a reaction buffer (15 mM tris-hydrochloric acid buffer (pH 7.5), 0.001% Triton X-100, 0.01% BSA) so that the final concentration would be 20 nM, 3 nM, and 100 nM. Enzyme solutions were thus formed. In a reaction buffer, AMARA Peptide (SignalChem) as a substrate with a final concentration of 200 μM (SIK1, SIK2) or 100 μM (SIK3), ATP (Promega) with a final concentration of 1 mM, and magnesium chloride with a final concentration of 5 mM were prepared. Substrate solutions were thus formed. The enzyme solution, the substrate solution, and a DMSO solution of a concentration of the test compound were mixed together and reacted at room temperature for 2 hours. After the reaction, ADP-Glo™ Reagent (Promega) was added, and the reaction was performed at room temperature for 30 minutes. Subsequently, ADP-Glo™ Max Detection Reagent (Promega) was added, and the reaction was performed at room temperature for 30 minutes. The emission by the luciferase reaction was measured with PHERAstar FSX (BMG LABTECH).
(§3) The inhibitory ratio (%) was calculated by: % Inhibition={1−(intensity of sample−intensity of blank (no enzyme solution added))/(intensity of control (DMSO alone)−intensity of blank)}×100. The inhibitory concentration IC50 was calculated based on 16 data values obtained in the concentration response test.

GST-tagged SIK1 = GST-tagged SIK1 (Homo sapiens (Human), UniProt P57059); experiment: SIK1 inhibition test (ADP-Glo Max Assay); conditions: enzyme 20 nM, AMARA Peptide 200 μM, ATP 1 mM, 2 hours room temperature
Chain of GST-tagged SIK1 (P57059 whole entry): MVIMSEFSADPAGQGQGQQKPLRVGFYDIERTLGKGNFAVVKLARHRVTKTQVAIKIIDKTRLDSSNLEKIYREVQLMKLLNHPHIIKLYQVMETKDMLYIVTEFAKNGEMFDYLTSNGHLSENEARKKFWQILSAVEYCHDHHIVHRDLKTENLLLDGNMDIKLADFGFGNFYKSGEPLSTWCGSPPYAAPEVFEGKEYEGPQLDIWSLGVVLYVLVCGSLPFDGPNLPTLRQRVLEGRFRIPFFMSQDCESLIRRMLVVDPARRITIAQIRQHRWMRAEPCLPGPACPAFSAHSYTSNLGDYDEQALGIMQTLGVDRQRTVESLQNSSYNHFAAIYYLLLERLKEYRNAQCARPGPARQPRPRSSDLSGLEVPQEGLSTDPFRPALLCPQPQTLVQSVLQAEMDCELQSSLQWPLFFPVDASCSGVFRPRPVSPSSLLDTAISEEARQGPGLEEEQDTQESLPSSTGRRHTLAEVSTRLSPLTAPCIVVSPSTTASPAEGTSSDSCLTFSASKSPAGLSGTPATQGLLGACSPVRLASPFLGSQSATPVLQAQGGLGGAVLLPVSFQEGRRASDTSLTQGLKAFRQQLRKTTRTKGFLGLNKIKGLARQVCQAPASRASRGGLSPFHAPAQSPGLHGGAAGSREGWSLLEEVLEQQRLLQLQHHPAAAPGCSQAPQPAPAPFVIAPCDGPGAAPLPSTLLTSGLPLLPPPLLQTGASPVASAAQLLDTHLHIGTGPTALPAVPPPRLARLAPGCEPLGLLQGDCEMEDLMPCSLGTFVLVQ
Experimental: as §1, §2, §3

GST-tagged SIK3 = GST-tagged SIK3 (Homo sapiens (Human), UniProt Q9Y2K2); experiment: SIK3 inhibition test (ADP-Glo Max Assay); conditions: enzyme 100 nM, AMARA Peptide 100 μM, ATP 1 mM, 2 hours room temperature
Chain of GST-tagged SIK3 (Q9Y2K2 whole entry): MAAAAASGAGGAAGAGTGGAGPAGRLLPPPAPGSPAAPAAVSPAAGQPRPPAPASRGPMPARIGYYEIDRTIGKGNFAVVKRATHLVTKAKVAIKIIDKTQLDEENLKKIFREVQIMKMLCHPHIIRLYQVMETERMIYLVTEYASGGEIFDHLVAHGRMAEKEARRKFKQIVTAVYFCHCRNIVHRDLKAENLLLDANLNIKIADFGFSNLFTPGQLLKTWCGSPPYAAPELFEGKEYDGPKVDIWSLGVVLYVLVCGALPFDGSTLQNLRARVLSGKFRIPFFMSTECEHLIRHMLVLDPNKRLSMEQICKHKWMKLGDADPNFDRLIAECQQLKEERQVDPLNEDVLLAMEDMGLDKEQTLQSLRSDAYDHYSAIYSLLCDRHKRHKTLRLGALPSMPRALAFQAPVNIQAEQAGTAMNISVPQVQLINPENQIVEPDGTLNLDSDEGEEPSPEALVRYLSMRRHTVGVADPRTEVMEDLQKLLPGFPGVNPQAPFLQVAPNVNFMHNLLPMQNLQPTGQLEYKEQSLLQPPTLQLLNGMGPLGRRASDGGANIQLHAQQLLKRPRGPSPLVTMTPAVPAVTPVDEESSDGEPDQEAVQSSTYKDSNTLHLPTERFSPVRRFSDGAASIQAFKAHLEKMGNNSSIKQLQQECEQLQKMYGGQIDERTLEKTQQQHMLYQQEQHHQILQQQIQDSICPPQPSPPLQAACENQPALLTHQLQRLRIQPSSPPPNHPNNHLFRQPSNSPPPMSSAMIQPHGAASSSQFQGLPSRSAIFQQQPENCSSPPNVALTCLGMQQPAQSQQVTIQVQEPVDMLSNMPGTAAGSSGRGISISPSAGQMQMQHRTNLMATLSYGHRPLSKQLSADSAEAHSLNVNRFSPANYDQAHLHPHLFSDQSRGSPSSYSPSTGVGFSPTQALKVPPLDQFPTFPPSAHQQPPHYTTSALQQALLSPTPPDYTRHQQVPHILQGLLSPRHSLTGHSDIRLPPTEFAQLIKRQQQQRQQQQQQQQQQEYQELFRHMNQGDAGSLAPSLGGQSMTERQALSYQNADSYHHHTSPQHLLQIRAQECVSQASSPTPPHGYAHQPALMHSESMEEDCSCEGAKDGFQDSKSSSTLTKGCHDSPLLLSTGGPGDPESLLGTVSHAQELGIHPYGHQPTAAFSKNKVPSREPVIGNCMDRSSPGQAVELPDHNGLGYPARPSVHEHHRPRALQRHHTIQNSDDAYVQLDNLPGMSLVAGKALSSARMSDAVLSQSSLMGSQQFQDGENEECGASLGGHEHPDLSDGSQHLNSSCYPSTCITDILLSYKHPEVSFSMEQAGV
Experimental: as §1, §2, §3

Chain of GST-tagged SIK2 (Q9H0K1 whole entry): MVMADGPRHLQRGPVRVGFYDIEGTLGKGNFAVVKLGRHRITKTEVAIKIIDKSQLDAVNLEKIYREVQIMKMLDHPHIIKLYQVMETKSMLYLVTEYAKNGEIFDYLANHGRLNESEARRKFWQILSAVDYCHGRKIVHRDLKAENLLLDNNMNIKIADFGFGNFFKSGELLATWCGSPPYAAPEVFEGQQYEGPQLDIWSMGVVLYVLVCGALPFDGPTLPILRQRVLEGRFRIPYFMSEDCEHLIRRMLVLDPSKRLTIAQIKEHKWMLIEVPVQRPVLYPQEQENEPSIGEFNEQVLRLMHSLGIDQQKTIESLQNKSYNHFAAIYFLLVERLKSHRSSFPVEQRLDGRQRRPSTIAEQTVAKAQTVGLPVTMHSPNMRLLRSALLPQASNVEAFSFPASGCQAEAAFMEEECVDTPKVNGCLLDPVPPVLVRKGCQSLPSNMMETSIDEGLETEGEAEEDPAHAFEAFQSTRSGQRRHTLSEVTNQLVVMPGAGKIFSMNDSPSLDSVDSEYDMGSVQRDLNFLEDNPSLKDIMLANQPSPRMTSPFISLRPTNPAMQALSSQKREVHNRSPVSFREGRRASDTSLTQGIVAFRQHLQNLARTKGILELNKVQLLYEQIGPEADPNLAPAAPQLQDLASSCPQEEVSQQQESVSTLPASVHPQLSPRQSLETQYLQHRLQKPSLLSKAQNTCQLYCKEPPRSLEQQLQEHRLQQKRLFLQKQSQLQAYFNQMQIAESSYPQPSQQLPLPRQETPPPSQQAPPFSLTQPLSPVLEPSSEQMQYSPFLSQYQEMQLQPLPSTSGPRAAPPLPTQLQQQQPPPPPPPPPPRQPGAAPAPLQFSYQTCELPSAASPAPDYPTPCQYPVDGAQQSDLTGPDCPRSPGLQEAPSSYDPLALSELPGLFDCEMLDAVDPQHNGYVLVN

IC50 (GST-tagged SIK2)	IC50 (GST-tagged SIK1)	IC50 (GST-tagged SIK3)	SMILES
16.2 nM	17.1 nM	12.4 nM	COc1cc(-c2c3c(C#N)cc(-c4cnn(C)c4)cc3nn2C)cc(OC(F)F)c1C(=O)N1CC(O)(C(F)(F)F)C1 [Example 7, 3-[3-(difluoromethoxy)-4-[3-hydroxy-3-(trifluoromethyl)azetidin-1-carbonyl]-5-methoxyphenyl]-2-methyl-6-(1-methylpyrazol-4-yl)indazole-4-carbonitrile]
9.7 nM	7.2 nM	5.8 nM	COc1cc(-c2c3c(C#N)cc(-c4cnn(C)c4)cc3nn2C)cc(OC(F)F)c1C(=O)N1CC(C)(C(F)F)C1 [Example 8, 3-[3-(difluoromethoxy)-4-[3-(difluoromethyl)-3-methylazetidin-1-carbonyl]-5-methoxyphenyl]-2-methyl-6-(1-methylpyrazol-4-yl)indazole-4-carbonitrile]
7 nM	12.4 nM	7 nM	COc1cc(-c2c3c(C#N)cc(-c4cnn(C)c4)cc3nn2C)cc(OC(F)F)c1C(=O)NCC1(F)CC1 [Example 12, 4-[4-cyano-2-methyl-6-(1-methylpyrazol-4-yl)indazol-3-yl]-2-(difluoromethoxy)-N-[(1-fluorocyclopropyl)methyl]-6-methoxybenzamide]
8.5 nM	5.4 nM	7.1 nM	COc1cc(-c2c3c(C#N)cc(-c4cnn(CC(=O)N(C)C)c4)cc3nn2C)cc(OC(F)F)c1C(=O)N1CC(O)(C(F)(F)F)C1 [Example 17, 2-[4-[4-cyano-3-[3-(difluoromethoxy)-4-[3-hydroxy-3-(trifluoromethyl)azetidin-1-carbonyl]-5-methoxyphenyl]-2-methylindazol-6-yl]pyrazol-1-yl]-N,N-dimethylacetamide]
1.3 nM	2.5 nM	8.7 nM	COc1cc(-c2c3c(C#N)cc(-c4cnn(CCN(C)C)c4)cc3nn2C)cc(OC(F)F)c1C(=O)N[C@@H]1C[C@@H]1F [Example 19, 4-[4-cyano-6-[1-[2-(dimethylamino)ethyl]pyrazol-4-yl]-2-methylindazol-3-yl]-2-(difluoromethoxy)-N-[(1R,2S)-2-fluorocyclopropyl]-6-methoxybenzamide]
5.6 nM	16.9 nM	4 nM	COc1cc(-c2c3c(C#N)cc(-c4cc(C)ns4)cc3nn2C)cc(OC(F)F)c1C(=O)N[C@@H]1C[C@@H]1F [Example 21, 4-[4-cyano-2-methyl-6-(3-methyl-1,2-thiazol-5-yl)indazol-3-yl]-2-(difluoromethoxy)-N-[(1R,2S)-2-fluorocyclopropyl]-6-methoxybenzamide]
3.2 nM	2 nM	7.7 nM	COc1cc(-c2c3c(C#N)cc(-c4cnn(C5CCOC5)c4)cc3nn2C)cc(OC(F)F)c1C(=O)N[C@@H]1C[C@@H]1F (stereo partly drawn) [Example 22, 4-[4-cyano-2-methyl-6-[1-(oxolan-3-yl)pyrazol-4-yl]indazol-3-yl]-2-(difluoromethoxy)-N-[(1R,2S)-2-fluorocyclopropyl]-6-methoxybenzamide]
2.5 nM	2.1 nM	5 nM	COc1cc(-c2c3c(C#N)cc(-c4cnn(C)c4)cc3nn2C)cc(OC(F)F)c1C(=O)N[C@@H]1CC1(F)F [Example 23, 4-[4-cyano-2-methyl-6-(1-methylpyrazol-4-yl)indazol-3-yl]-N-[(1R)-2,2-difluorocyclopropyl]-2-(difluoromethoxy)-6-methoxybenzamide]
10.5 nM	9.6 nM	12.8 nM	COc1cc(-c2c3c(C#N)cc(-c4cnn(C)c4)cc3nn2C)cc(OC(F)F)c1C(=O)N1CC(O)(C(F)F)C1 [Example 25, 3-[3-(difluoromethoxy)-4-[3-(difluoromethyl)-3-hydroxyazetidin-1-carbonyl]-5-methoxyphenyl]-2-methyl-6-(1-methylpyrazol-4-yl)indazole-4-carbonitrile]
4.3 nM	7.1 nM	11.2 nM	COc1cc(-c2c3c(OCC4COC4)cc(-c4cnn(C)c4)cc3nn2C)cc(OC(F)F)c1C(=O)N1CC(O)(C(F)(F)F)C1 [Example 26, [2-(difluoromethoxy)-6-methoxy-4-[2-methyl-6-(1-methylpyrazol-4-yl)-4-(oxetan-3-ylmethoxy)indazol-3-yl]phenyl]-[3-hydroxy-3-(trifluoromethyl)azetidin-1-yl]methanone]
12.7 nM	13.7 nM	16 nM	COc1cc(-c2c3c(OCC4CCC4)cc(-c4cnn(C)c4)cc3nn2C)cc(OC(F)F)c1C(=O)N1CC(O)(C(F)(F)F)C1 [Example 27, [4-[4-(cyclobutylmethoxy)-2-methyl-6-(1-methylpyrazol-4-yl)indazol-3-yl]-2-(difluoromethoxy)-6-methoxyphenyl]-[3-hydroxy-3-(trifluoromethyl)azetidin-1-yl]methanone]

The remaining lines, values behind:

SMILES	IC50 (GST-tagged SIK2)	IC50 (GST-tagged SIK1)	IC50 (GST-tagged SIK3)
COc1cc(-c2c3c(C#N)cc(-c4cnn(C)c4)cc3nn2C)cc(OC(F)F)c1C(=O)N1CC(OC(F)F)C1 [Example 9, 3-[3-(difluoromethoxy)-4-[3-(difluoromethoxy)azetidine-1-carbonyl]-5-methoxyphenyl]-2-methyl-6-(1-methylpyrazol-4-yl)indazole-4-carbonitrile]	12.2 nM	16.2 nM	10 nM
COc1cc(-c2c3c(C#N)cc(-c4cnn(C)c4)cc3nn2C)cc(OC(F)F)c1C(=O)NCC1CC1(F)F (stereo not drawn) [Example 10]	7.3 nM	13.8 nM	6.3 nM
COc1cc(-c2c3c(C(F)F)cc(-c4cnn(C)c4)cc3nn2C)cc(OC(F)F)c1C(=O)N[C@@H]1CC1(F)F [Example 11, N-[(1R)-2,2-difluorocyclopropyl]-2-(difluoromethoxy)-4-[4-(difluoromethyl)-2-methyl-6-(1-methylpyrazol-4-yl)indazol-3-yl]-6-methoxybenzamide]	12.3 nM	9.8 nM	2.4 nM
COc1cc(-c2c3c(OC)cc(-c4cnn(C)c4)cc3nn2C)cc(OC(F)F)c1C(=O)N1CC(O)(C(F)(F)F)C1 [Example 13, [2-(difluoromethoxy)-6-methoxy-4-[4-methoxy-2-methyl-6-(1-methylpyrazol-4-yl)indazol-3-yl]phenyl]-[3-hydroxy-3-(trifluoromethyl)azetidin-1-yl]methanone]	7.2 nM	4.6 nM	3.8 nM
COc1cc(-c2c3c(OC(F)F)cc(-c4cnn(C)c4)cc3nn2C)cc(OC(F)F)c1C(=O)N1CC(O)(C(F)(F)F)C1 [Example 14, [2-(difluoromethoxy)-4-[4-(difluoromethoxy)-2-methyl-6-(1-methylpyrazol-4-yl)indazol-3-yl]-6-methoxyphenyl]-[3-hydroxy-3-(trifluoromethyl)azetidin-1-yl]methanone]	8.8 nM	3.6 nM	2.4 nM
CCn1cc(-c2cc(C#N)c3c(-c4cc(OC)c(C(=O)N5CC(O)(C(F)(F)F)C5)c(OC(F)F)c4)n(C)nc3c2)cn1 [Example 15, 3-[3-(difluoromethoxy)-4-[3-hydroxy-3-(trifluoromethyl)azetidin-1-carbonyl]-5-methoxyphenyl]-6-(1-ethylpyrazol-4-yl)-2-methylindazole-4-carbonitrile]	10.3 nM	9.2 nM	1.4 nM
COc1cc(-c2c3c(C#N)cc(-c4cnn(CC(C)(C)O)c4)cc3nn2C)cc(OC(F)F)c1C(=O)N1CC(O)(C(F)(F)F)C1 [Example 16]	13.8 nM	8.7 nM	3.2 nM
CCn1cc(-c2cc(C#N)c3c(-c4cc(OC)c(C(=O)N[C@@H]5C[C@@H]5F)c(OC(F)F)c4)n(C)nc3c2)cn1 [Example 18, 4-[4-cyano-6-(1-ethylpyrazol-4-yl)-2-methylindazol-3-yl]-2-(difluoromethoxy)-N-[(1R,2S)-2-fluorocyclopropyl]-6-methoxybenzamide]	3.1 nM	1.4 nM	7 nM
COc1cc(-c2c3c(C#N)cc(-c4cnn(C(C)(C)C)c4)cc3nn2C)cc(OC(F)F)c1C(=O)N[C@@H]1C[C@@H]1F [Example 20, 4-[6-(1-tert-butylpyrazol-4-yl)-4-cyano-2-methylindazol-3-yl]-2-(difluoromethoxy)-N-[(1R,2S)-2-fluorocyclopropyl]-6-methoxybenzamide]	5.8 nM	4.4 nM	13.7 nM
COc1cc(-c2c3c(C#N)cc(-c4cc[nH]n4)cc3nn2C)cc(OC(F)F)c1C(=O)N[C@@H]1C[C@@H]1F [Example 24, 4-[4-cyano-2-methyl-6-(1H-pyrazol-3-yl)indazol-3-yl]-2-(difluoromethoxy)-N-[(1R,2S)-2-fluorocyclopropyl]-6-methoxybenzamide]	6.5 nM	6.6 nM	11.8 nM
